This passage reports EC50 results from patent US8637674B2, “Pyrazole derivatives, preparation method thereof, and composition for prevention and treatment of osteoporosis containing same” (EWHA University-Industry Collaboration Foundation, priority 2009, dated 2014).

In this test the target is reactive oxygen species generated in kidney membrane (NADPH oxidase). Description: Inhibition of reactive oxygen species generation in kidney membrane (lucigenin-based assay). Format: biochemical, rat (Rattus norvegicus). The settings on record: 37° C. for 10 minutes, luminescence, compounds at 40, 10, 2.5, 0.625, 0 μM. As for the experimental part: A kidney was isolated from a rat (Rattus norvegicus) and washed with phosphate buffered saline (PBS). The tissue was soaked in 20 mL of PBS buffer containing a protease inhibitor (Aprotinin 1 μg/mL-USB 11388, Leupeptin 1 μg/mL-USB-18413), finely disrupted using a mixer, and then transferred to a 50 mL conical tube (SPL 50050), followed by centrifugation at 10000 g for 10 minutes (MF-600 plus, Hanil) to sediment the undisrupted tissue. The supernatant was separated and collected in a fresh tube. The tube was placed in ice and subjected to sonication about 4 times each cycle for 30 seconds until the supernatant became clear (Branson Digital Sonifier, Model CE Converter 102C). The supernatant was transferred to a high-speed centrifugation tube (Beckman 331372) and then centrifuged at 100000 g for 1 hour (Optima™ L-90 K Preparative Ultracentrifuge, SW41Ti rotor, Beckman). After the supernatant was discarded, the remaining pellet was washed once with cold PBS and dissolved in 500 μL of cold PBS containing a protease inhibitor to obtain a murine kidney membrane.
Reactive oxygen species generated in the thus-obtained kidney membrane was analyzed by a lucigenin-based assay.
Specifically, each of the compounds synthesized in Examples of the present invention (40 μM, 10 μM, 2.5 μM, 0.625 μM, and 0 μM) was placed in a luminescence assay microplate, and the isolated kidney membrane and lucigenin were sequentially added thereto, followed by incubation at 37° C. for 10 minutes. Then, the intensity of luminescence was measured in a luminometer (MicroLumatPlus LB96V Microplate Luminometer, Berthold) to assay the generation of reactive oxygen species in the murine kidney membrane, followed by calculating an EC50 value of the inventive compounds.
As to `Oc1cc(COc2ccc3ccccc3c2)nn1-c1ccccn1` [Compound 6b, 3-((naphthalen-3-yloxy)methyl)-1-(pyridin-2-yl)-1H-pyrazol-5-ol], the EC50 was 0.4 µM.
Then `Oc1cc(CCc2ccccc2)nn1-c1ccccn1` [Compound 3d, 3-phenethyl-1-(pyridin-2-yl)-1H-pyrazol-5-ol], with 10 µM; and `Oc1cc(C=Cc2ccc(Cl)c(Cl)c2)nn1-c1ccccn1` [Compound 9d, 3-(3,4-dichlorostyryl)-1-(pyridin-2-yl)-1H-pyrazol-5-ol], with 1.7 µM; and `Oc1cc(COc2ccccc2)nn1-c1ccccn1` [Compound 6a, 3-(phenoxymethyl)-1-(pyridin-2-yl)-1H-pyrazol-5-ol], with 7.5 µM.
Then `COc1ccc(C=Cc2cc(O)n(-c3ccccn3)n2)cc1` [Compound 9b, 3-(4-methoxystyryl)-1-(pyridin-2-yl)-1H-pyrazol-5-ol], with 0.5 µM; and `Oc1cc(COc2ccc(Cl)cc2Cl)nn1-c1ccccn1` [Compound 6d, 3-((2,4-dichlorophenoxy)methyl)-1-(pyridin-2-yl)-1H-pyrazol-5-ol], with 1.8 µM.
Then `Oc1cc(Cc2ccc(Cl)cc2)nn1-c1ccccn1` [Compound 3e, 3-(p-chlorobenzyl)-1-(pyridin-2-yl)-1H-pyrazol-5-ol], with 1.5 µM; and `Oc1ccc(C=Cc2cc(O)n(-c3ccccn3)n2)cc1` [Compound 9k, 3-(4-hydroxystyryl)-1-(pyridin-2-yl)-1H-pyrazol-5-ol], with 1.5 µM; and `Oc1cc(C=Cc2ccccc2)nn1-c1ccccn1` [Compound 9a, 1-(pyridin-2-yl)-3-styryl-1H-pyrazol-5-ol], with 0.5 µM.
`CC(C)(C)[Si](C)(C)Oc1ccc(/C=C/c2cc(O)n(-c3ccccn3)n2)cc1` [Compound 9g] had an EC50 of 0.9 µM.
Then `Oc1cc(C=Cc2ccc(C(F)(F)F)cc2)nn1-c1ccccn1` [Compound 9f, 3-(4-trifluoromethylstyryl)-1-(pyridin-2-yl)-1H-pyrazol-5-ol], with 0.5 µM; and `COc1ccc(C=Cc2cc(O)n(-c3ccccn3)n2)cc1OC` [Compound 9c, 3-(3,4-dimethoxystyryl)-1-(pyridin-2-yl)-1H-pyrazol-5-ol], with 0.6 µM.
